The source of these data is patent publication US20250339374A1, “BONDED MICROPARTICULATES PREPARATION AND APPLICATIONS THEREOF” (Venkor Corporation, priority 2022, published 2025).

For series [1] the following is noted: in water; description of the solid particulate material in the composition table; cited from earlier work.
Series [2] is described as follows: Sieve analysis (particle size) of solid particulate material and BMPX, USP <786>. The series is classed as physicochemical. The following applies: solid particulate material; for Particle size: description in composition table. The text has this:
For example, to prepare tablets, certain excipients such as disintegrants, lubricants, glidants etc. may be added to the bonded microparticulates to further facilitate forming the tablet.

Series [3] is described as follows: Tapped density, USP <616>. The series is classed as physicochemical. Particulars: solid particulate material, description in composition table; equals tapped density of Active. Here is the method: In addition to screen analysis, the tap density and the bulk density of the bonded microparticulates and solid particulate material were determined.
Series [4] is described as follows: Solubility in water of solid particulate material (descriptive). It counts as physicochemical. The procedure:
In some embodiments, the solid particulate starting material is hydrophilic or hydrophobic or lipophilic in character. Solubility of drugs is measured by the amount of solvent needed to dissolve one part of the drug at a specific temperature. For example, a drug that is very soluble needs less than one part of solvent to dissolve one part of the drug. A drug that is considered freely soluble needs 1 to 10 parts of solvent, one that is soluble needs 10 to 30 parts of solvent, one that sparingly soluble need 30 to 100 parts of solvent, one that is slightly soluble needs 100-1,000 parts and one that is practically insoluble or insoluble needs more than 10,000 parts, per part of solute.

[5] abbreviates: description in composition table.

Like-named read-outs stand apart in the source and are kept apart here. Some results are limits rather than exact numbers.

As to `CCOC(=O)C1=C(COCCN)NC(C)=C(C(=O)OC)C1c1ccccc1Cl` (centres unmarked) [Amlodipine Besylate], in series [1], the Solubility entry is reported as “Solubility- insoluble in water”. With `O=C([O-])[O-].[Ca+2]` [Calcium Carbonate], the “retain on 60mesh” value in series [2] (60 mesh) is ≥ 90% retain on 60mesh. Also, in series [3], the Density entry is given as “Density -1.2(High Density)”.

Regarding `COc1ccccc1OCC(O)CO` (centres unmarked) [Guaifenesin], in series [1], the Solubility result is “Solubility- soluble in water”. With `CC(C)Cc1ccc(C(C)C(=O)O)cc1` (centres unmarked) [Ibuprofen], the Solubility entry in series [1] is listed as “Solubility- in soluble in water”. Turning to `OC[C@@H](O)[C@@H](O)[C@H](O)[C@H](O)CO` [Mannitol], the Solubility result in series [4] (in water) is reported as “Solubility- insoluble in water”. As for `O=C(O)c1cccnc1` [Niacin], the Solubility entry in series [1] was “Solubility- soluble in water”.

Regarding `O=C([O-])O.[Na+]` [Sodium Bicarbonate, reference compound], the “retain on 200#” value in series [2] (200 mesh) is 70.8%. In addition, the Particle size in series [2] is 74 microns. Besides, in series [3], the Density result is given as “Density -1.19 (High Density)-”. Take `OC[C@@H](O)[C@H](O)[C@@H](O)CO` [Xylitol-90]: the Solubility result in series [4] (in water) is listed as “Solubility- soluble in water”. Take `OC[C@@H](O)[C@H](O)[C@@H](O)CO` [Xylitol-300]: the Particle size result in series [2] is recorded as “Particle size- 149 microns”. The Density result in series [3] is listed as “Density -0.83 (High Density)”. In series [4] (setting [5]), the Solubility entry was “Solubility- soluble in water”. For Fructo-Oligosaccharide the same measures were “Particle size- 149 microns”, “Density -0.75 (High Density)” and “Solubility- soluble in water”.

Regarding Sugar powder, the Solubility entry in series [4] (in water) was “Solubility- soluble in water”.

Zinc Gluconate: the Particle size entry in series [2] is recorded as “Particle size- 177 microns”. Also, in series [3], the Density result is on record as “Density- 0.6(Medium density)”.
